This assay has as its target EGFR^WT (Homo sapiens, UniProt P00533). Briefly: in vitro EGFR kinase inhibition assay (human EGFR ELISA kit). In kind it is biochemical.

The values that follow come from article PMC9867533, “A New Anticancer Semisynthetic Theobromine Derivative Targeting EGFR Protein: CADDD Study” (Life, 2023).

SMILES strings stand for the structures.

EGFR^WT, sequence (P00533 25-1210): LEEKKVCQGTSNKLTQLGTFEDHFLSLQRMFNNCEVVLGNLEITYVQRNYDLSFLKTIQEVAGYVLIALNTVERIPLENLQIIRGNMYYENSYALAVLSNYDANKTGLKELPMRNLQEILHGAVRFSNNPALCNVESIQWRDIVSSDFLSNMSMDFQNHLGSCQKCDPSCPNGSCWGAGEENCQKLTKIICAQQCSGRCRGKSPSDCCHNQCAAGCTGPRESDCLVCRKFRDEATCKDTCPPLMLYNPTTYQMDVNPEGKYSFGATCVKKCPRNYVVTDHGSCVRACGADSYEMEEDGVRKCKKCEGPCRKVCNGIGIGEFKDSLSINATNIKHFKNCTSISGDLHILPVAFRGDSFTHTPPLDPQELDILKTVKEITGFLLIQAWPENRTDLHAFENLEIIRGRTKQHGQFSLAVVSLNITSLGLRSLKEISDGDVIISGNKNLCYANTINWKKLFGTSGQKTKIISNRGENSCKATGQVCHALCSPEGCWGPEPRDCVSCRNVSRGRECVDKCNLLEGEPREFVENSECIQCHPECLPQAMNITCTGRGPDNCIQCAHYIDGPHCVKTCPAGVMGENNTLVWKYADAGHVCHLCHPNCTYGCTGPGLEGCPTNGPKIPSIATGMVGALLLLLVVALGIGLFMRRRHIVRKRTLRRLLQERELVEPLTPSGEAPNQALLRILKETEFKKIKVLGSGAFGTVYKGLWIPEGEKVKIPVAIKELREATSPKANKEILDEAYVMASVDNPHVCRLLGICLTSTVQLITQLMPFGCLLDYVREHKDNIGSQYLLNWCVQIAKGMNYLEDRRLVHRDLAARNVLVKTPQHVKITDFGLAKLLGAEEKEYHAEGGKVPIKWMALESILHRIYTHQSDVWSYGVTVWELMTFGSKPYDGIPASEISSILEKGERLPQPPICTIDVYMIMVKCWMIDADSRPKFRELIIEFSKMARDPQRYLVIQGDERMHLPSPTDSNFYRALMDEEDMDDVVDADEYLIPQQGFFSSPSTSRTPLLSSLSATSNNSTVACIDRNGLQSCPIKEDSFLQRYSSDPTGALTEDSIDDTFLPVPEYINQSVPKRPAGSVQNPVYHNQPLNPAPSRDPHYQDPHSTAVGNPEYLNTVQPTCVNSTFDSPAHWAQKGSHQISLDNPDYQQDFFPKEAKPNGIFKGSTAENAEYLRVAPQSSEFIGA

In general, IC50 refers to the concentration needed to halve the response being measured. Low values mean greater potency in that assay, high ones weaker potency in that assay. As to `Cn1cnc2c1c(=O)n(CC(=O)Nc1ccc(Cl)cc1)c(=O)n2C` [T-1-PCPA, N-(4-Chlorophenyl)-2-(3,7-dimethyl-2,6-dioxo-2,3,6,7-tetrahydro-1H-purin-1-yl)acetamide], the IC50 was found to be 25.4 nM.
